In patent US20250304630A1, “POLYPEPTIDES HAVING OSMOPROTECTIVE ACTIVITY, COMPOSITIONS THEREOF AND USES THEREOF” (DELAVIE SCIENCES, LLC, priority 2022, published 2025):
Marks after values point to notes of the source that are not given here.

Assays:
[1] = HORAC assay (OxiSelect HORAC Assay), loss of FITC fluorescence; assay type: biochemical
Method: (§1) This assay procedure was used to screen materials for antioxidant properties using non-cell-based methods. Dilutions of HSP tested were 10%, 5%, 1%, 0.5%, 0.1%, 0.05%, and 0.01%.
(§2) Fluorescein (FITC) is normally a highly fluorescent molecule, yet when fluorescein is oxidized by either peroxyl radicals or hydroxyl radicals, it loses its fluorescence. Thus, when FITC is incubated in the presence of 2,2′-azobis(2-amidino-propane) dihydrochloride (AAPH, a peroxyl radical generating compound), or a combination of hydrogen peroxide and cobalt (a hydroxyl radical generating system based on the Fenton-type reaction), there will be a time dependent loss of FITC fluorescence. However, if a material with antioxidant properties is present during the incubation, the loss of fluorescence will be delayed as some of the peroxyl or hydroxyl radicals react with the antioxidant material instead of the FITC. Under these conditions, the delay or prevention in fluorescence decay will be in proportion to the antioxidant capacity of the test material.
The HORAC assay was performed as specified by the manufacturer of the kit. For the assay, the test materials were prepared in Assay Buffer at 10× their final desired concentrations. Caffeic acid was used as the positive control for this assay. To start the assay, 20 μl of the test material or positive control were added to the wells of a 96-well plate. All of the samples were prepared in triplicate. Next, 140 μl of an FITC solution was added to each well and the plate was incubated for 30 minutes in the dark. After this incubation, 20 μl of a hydrogen peroxide solution (Hydroxyl Radical Initiator) was added to each well, followed by the addition of 20 μl of a cobalt solution (Fenton Reagent). The plate was mixed and then read using a Fluoroskan Ascent Fluorometer at 3-minute intervals for 60 minutes with an excitation wavelength of 480 nm and an emission wavelength of 518 nm.
(§3) The loss of FITC fluorescence can be graphed by plotting fluorescence intensity vs time for each of the samples to generate a fluorescence decay curve. The area under this curve (AUC) then represents the extent of FITC fluorescence loss over the course of the assay, and this measurement is then used as an index for the effectiveness of the antioxidant samples. The AUC for a sample can be calculated using the following equation: […]
(§4) Where RFUO is the initial fluorescence measurement of the sample at time 0, with each subsequent RFU measurement indicated by the respective increased numbers. The AUC measurements were then used to determine the percent inhibition for each concentration of the test material screened, followed by the determination of the IC50, the concentration of the material at which 50% of the FITC signal loss due to radical interaction is prevented.

human keratinocytes = assay: Osmotic stress assay: keratinocytes pretreated, exposed to hypertonic NaCl media, viability by MTT; assay type: cell-based; conditions: for Cell Viability: MTT, % of untreated 0 mM NaCl control, mean +/- SD
Method: (§5) This assay procedure was used to screen the recombinantly produced HSP for its ability to protect against osmotic stress, using cultured human keratinocytes as the testing model. The assay used changes in cell viability as the endpoint for measuring the protective effect.
(§6) For this study, human keratinocytes were pretreated for 24 hours with either HSP, a mild hypertonic solution of sorbitol (positive control), or left untreated (negative control). After the pretreatment, the cell culture media was replaced with media supplemented with NaCl at progressively increasing hypertonic concentrations. The cells were then incubated again for 24 hours. After the second incubation, cell viability was determined using an MTT assay.
(§7) The MTT assay is a colorimetric analysis of the metabolic activity of the cell, which is a reflection of cell viability. Viable cells can take up MTT, which is then reduced by mitochondria, resulting in the formation of insoluble purple formazin crystals. These crystals are then extracted from the cells with isopropanol and quantified spectrophotometrically. The intensity of the purple color is directly proportional to the number of viable cells.
(§8) Human adult epidermal keratinocytes were grown using EpiLife Media (60 µM calcium) supplemented with 0.2% v/v bovine pituitary extract, 1 μg/ml recombinant human insulin-like growth factor-1, 0.18 μg/ml hydrocortisone, 5 μg/ml bovine transferrin, 0.2 ng/ml human epidermal growth factor. When a sufficient number of cells had been grown, they were transferred to 96-well plates and cultured for a minimum of 24 hours to allow the cells to adhere to the well plates. The cells were then used when they were fully confluent.
(§9) The test materials and the sorbitol positive controls were prepared in fully supplemented EpiLife media. Supplemented EpiLife media alone served as the untreated control. These solutions were applied to the keratinocytes in the 96-well plates, after which the plates were incubated for 24 hours at 37±2° C. and 5±1% CO2.
(§10) After the pretreatment incubation, the cell culture media was removed from both of the 96-well plates and replaced with supplemented EpiLife media which had progressively increasing concentrations of additional NaCl added (0, 75, 100, 125 and 150 mM) to generate a series of increasingly hypertonic solutions. After the addition of the media/NaCl, the 96-well plates were incubated for an additional 24 hours.
(§11) After the second 24-hour incubation, the cell culture media was removed and the cells were washed once with phosphate buffered saline. After washing, 100 μl of keratinocyte cell culture media supplemented with MTT (0.5 mg/ml) was added to each well. The 96-well plates were returned to the incubator (37+2° C. and 5+1% CO2) for one hour. After the incubation the MTT solution was removed via aspiration and the cells were rinsed twice with phosphate buffered saline to remove any residual MTT on the outside of the cells and then 100 μl of isopropyl alcohol was added to the wells to extract the purple formazin crystals. The well plates were then read at 540 nm using isopropyl alcohol as a blank.
(§12) The mean MTT absorbance value for the untreated control cells not exposed to any osmotic stress (0 mM NaCl) was calculated and used to represent 100% cell viability. The individual MTT values from the cells undergoing the various treatments were then divided by the mean value for the negative control cells and expressed as a percentage to determine the change in cell viability caused by each treatment.

[2] = as above; assay type: cell-based, human; conditions: human, human adult epidermal keratinocytes, then 24 h with 0 mM added NaCl, MTT, % of untreated 0 mM NaCl control, mean +/- SD, read-out: Cell Viability
Method: as §5, §6, §7, §8, §9, §10, §11, §12

[3] = ORAC assay, loss of FITC fluorescence with AAPH; assay type: biochemical
Method: as §1, §2
For the ORAC assay, the test materials were prepared in Assay Buffer at 10× their final desired concentrations. Trolox was used as the positive control for this assay. To start the assay, 20 μl of the test material or positive control were added to the wells of a 96-well plate. All of the samples were prepared in triplicate. Next, 160 μl of a 360 nM FITC solution was added to each well and the plate was incubated for 30 minutes in the dark. After this incubation, 20 μl of a 153 mM AAPH (peroxyl radical generator) was added to each well. The plate was mixed and then read using a Fluoroskan Ascent Fluorometer at 2.5-minute intervals for 60 minutes with an excitation wavelength of 480 nm and an emission wavelength of 518 nm.
as §3, §4

[4] = concentration at which 50% of the FITC signal loss is prevented

O=C(O)/C=C/c1ccc(O)c(O)c1 [Caffeic Acid, Caffeic acid, reference compound]
Percent Inhibition ([1]; concentration 0.625 ug/ml): 8.85%
Percent Inhibition ([1]; concentration 1.25 ug/ml): 14.56%
Percent Inhibition ([1]; concentration 2.5 ug/ml): 56.30%
Percent Inhibition ([1]; concentration 5 ug/ml): 68.86%
Percent Inhibition ([1]; concentration 10 ug/ml): 60.03%
Percent Inhibition ([1]; concentration 20 ug/ml): 62.58%
IC50 [1, 4]: IC50: 3.25 ug/ml

OC[C@@H](O)[C@@H](O)[C@H](O)[C@@H](O)CO [Sorbitol, sorbitol, reference compound]
Cell Viability (human keratinocytes; 24 h pretreatment with 12.5 mM Sorbitol, then 24 h with 75 mM added NaCl): 103.2 +/− 1.8%
Cell Viability (human keratinocytes; 24 h pretreatment with 12.5 mM Sorbitol, then 24 h with 100 mM added NaCl): 98.3 +/− 6.0* %
Cell Viability (human keratinocytes; 24 h pretreatment with 12.5 mM Sorbitol, then 24 h with 125 mM added NaCl): 73.2 +/− 13.3* %
Cell Viability (human keratinocytes; 24 h pretreatment with 12.5 mM Sorbitol, then 24 h with 150 mM added NaCl): 24.1 +/− 9.6%
Cell Viability (human keratinocytes; 24 h pretreatment with 25 mM Sorbitol, then 24 h with 75 mM added NaCl): 100.0 +/− 7.7%
Cell Viability (human keratinocytes; 24 h pretreatment with 25 mM Sorbitol, then 24 h with 100 mM added NaCl): 93.9 +/− 2.8* %
Cell Viability (human keratinocytes; 24 h pretreatment with 25 mM Sorbitol, then 24 h with 125 mM added NaCl): 69.5 +/− 9.7* %
Cell Viability (human keratinocytes; 24 h pretreatment with 25 mM Sorbitol, then 24 h with 150 mM added NaCl): 29.5 +/− 5.6%
cell viability versus untreated cell samples (human keratinocytes; at both 100 mM and 125 mM NaCl): significantly greater than the untreated cell samples
osmoprotective effect (human keratinocytes; highest concentration of added NaCl (150 mM)): neither HSP nor sorbitol (positive control) showed a significant osmoprotective effect
effect on the reduction in cell viability caused by the increase in hypertonicity (human keratinocytes; increasing added NaCl, overall statement): slow the reduction in cell viability
viability at 24 h, 12.5 mM ([2]; 24 h pretreatment with 12.5 mM Sorbitol): 101%
viability at 24 h, 25 mM ([2]; 24 h pretreatment with 25 mM Sorbitol): 122%

Cc1c(C)c2c(c(C)c1O)CCC(C)(C(=O)O)O2 (stereo not shown) [Trolox, reference compound]
Percent Inhibition ([3]; concentration 0.078125 ug/ml): 30.79%
Percent Inhibition ([3]; concentration 0.15625 ug/ml): 47.09%
Percent Inhibition ([3]; concentration 0.3125 ug/ml): 68.77%
Percent Inhibition ([3]; concentration 0.625 ug/ml): 83.84%
Percent Inhibition ([3]; concentration 1.25 ug/ml): 84.06%
Percent Inhibition ([3]; concentration 2.5 ug/ml): 87.4%
Percent Inhibition ([3]; concentration 5 ug/ml): 90.3%
IC50 [3, 4]: IC50: 0.42 ug/ml
